Reference: the OPERA property sets (Mansouri et al. 2018)

Conditions: not given

Structure (SMILES) | melting point | boiling point | ready biodegradability | log10 Koa | log10 Koc (L/kg) | log10 vapour pressure (mmHg) | log10 Henry constant (atm·m³/mol)
COc1ccc([C@@H]2CC(=O)c3c(O)cc(O[C@@H]4O[C@H](CO[C@@H]5O[C@@H](C)[C@H](O)[C@@H](O)[C@H]5O)[C@@H](O)[C@H](O)[C@H]4O)cc3O2)cc1O | 262 °C | – | – | – | – | – | –
CC(C)(Oc1ccc(Cl)cc1)C(=O)OCCCOC(=O)C(C)(C)Oc1ccc(Cl)cc1 | 52 °C | – | – | – | – | – | –
CC(C)(C)c1ccccc1N | – | 234 °C | – | – | – | – | –
O=[N+]([O-])c1cc([N+](=O)[O-])c(F)cc1F | 73 °C | – | – | – | – | – | –
Nc1cccc2cccc(S(=O)(=O)O)c12 | – | – | not readily biodegradable | – | – | – | –
c1ccc2c(c1)Cc1ccccc1S2 | 128 °C | 341 °C | – | – | – | – | –
Clc1cc(Cl)c(-c2c(Cl)cc(Cl)cc2Cl)c(Cl)c1 | – | – | – | 8.99 | 6.08 | -4.92 | –
ClCCN(CCCl)c1ccc2ccccc2c1 | 55 °C | – | – | – | – | – | –
CCCCc1cc2c(=O)c(C(=O)OC)c[nH]c2cc1OCc1ccccc1 | 288 °C | – | – | – | – | – | –
CC1=C(C)C(=O)OC1=O | 96 °C | 223 °C | – | – | – | – | –
O=C(OCc1ccccc1)c1ccccc1 | 21 °C | 324 °C | readily biodegradable | – | – | -3.65 | –
CC(C)(O)C(Br)(Br)Br | 169 °C | – | – | – | – | – | –
c1ccc2c(c1)COC2 | – | 192 °C | – | – | – | – | –
O=C(O)c1ccc(C(=O)O)s1 | 359 °C | – | – | – | – | – | –
OCCC1CCCC1 | – | 183 °C | – | – | – | – | –
CC(=O)OCC(=O)[C@@]1(O)[C@H](OC(C)=O)C[C@H]2[C@@H]3CCC4=CC(=O)C=C[C@]4(C)[C@@]3(F)[C@@H](O)C[C@@]21C | 235 °C | – | – | – | – | – | –
ClCCCCCCCl | – | 204 °C | – | – | – | – | –
COc1ccc(C[C@H](N)C(=O)N[C@H]2[C@@H](O)[C@H](n3cnc4c(N(C)C)ncnc43)O[C@@H]2CO)cc1 | 176 °C | – | – | – | – | – | –
Cc1c(N=C=O)cccc1N=C=O | 18.3 °C | – | – | – | – | -1.68 | –
O=C(O)c1ccc([N+](=O)[O-])cc1Cl | 140 °C | – | – | – | – | – | –
C[C@@H]1C[C@H]2[C@@H]3C[C@H](F)C4=CC(=O)C=C[C@]4(C)[C@H]3[C@@H](O)C[C@]2(C)[C@H]1C(=O)CO | 188 °C | – | – | – | – | – | –
CCC(C)c1ccc(OCC2CO2)cc1 (stereo unspecified) | – | – | not readily biodegradable | – | – | – | –
Clc1c(Cl)c(Cl)c(-c2c(Cl)c(Cl)c(Cl)c(Cl)c2Cl)c(Cl)c1Cl | – | – | not readily biodegradable | – | – | – | –
CN(C)C(=O)Nc1ccc(Cl)cc1 | 170 °C | – | – | – | 1.95 | -6.3 | –

Structure (SMILES) | melting point | boiling point | ready biodegradability | log10 Koa | log10 Koc (L/kg) | log10 vapour pressure (mmHg) | log10 Henry constant (atm·m³/mol)
CCCC(=O)OC | -85.8 °C | 103 °C | – | – | – | 1.51 | -3.69
Clc1ccc(C/C(=C\CN2CCCC2)c2ccccc2)cc1 | 48.5 °C | – | – | – | – | – | –
CCC1(CC)C(=O)NC(=O)NC1=O | 190 °C | – | – | – | – | – | –
O=S1(=O)OCC2C(CO1)C1(Cl)C(Cl)=C(Cl)C2(Cl)C1(Cl)Cl (stereo unspecified) | 182 °C | – | – | – | – | -6.55 | –
CNC[C@H](O)c1ccc(O)c(O)c1.O=C(O)[C@H](O)[C@@H](O)C(=O)O | 150 °C | – | – | – | – | – | –
CCCC(C)CC=O (stereo unspecified) | – | 143 °C | – | – | – | – | –
CC(=O)OCCOCCOCCOC(C)=O | -50 °C | 286 °C | – | – | – | – | –
C[C@]12CC[C@H]3C(=CCc4cc(O)ccc43)[C@@H]1CC[C@@H]2O | 174 °C | – | – | – | – | – | –
CCCCCCCCC(=O)O | 12.3 °C | 254 °C | readily biodegradable | – | – | -2.78 | –
CCCC(=O)Oc1c(Br)cc(C#N)cc1Br | – | – | – | – | 3.03 | – | –
Cc1cc(=O)[nH]c(=S)[nH]1 | – | – | – | – | 2.14 | – | –
O=Cc1ccc2c(c1)OCO2 | 37 °C | 263 °C | readily biodegradable | – | – | -2 | –
C=C(Cl)C#N | -65 °C | 88.5 °C | – | – | – | – | –
COC(=O)CCl | -32.1 °C | 130 °C | readily biodegradable | – | – | 0.882 | –
CCC(O)CCl (stereo unspecified) | – | 141 °C | – | – | – | – | –
C[C@]12C=CC(=O)C=C1CC[C@@H]1[C@@H]2[C@@H](O)C[C@@]2(C)[C@H]1CC[C@]2(O)C(=O)COC(=O)CCCc1ccc(N(CCCl)CCCl)cc1 | 164 °C | – | – | – | – | – | –
Oc1ccc(Cc2ccc(O)cc2)cc1 | 162 °C | – | not readily biodegradable | – | – | – | –
COc1ccc(N(CCCC(=O)O)C(=O)c2ccc(Cl)cc2)cc1 | 116 °C | – | – | – | – | – | –
Cl.Cl.NCCc1c[nH]cn1 | 250 °C | – | – | – | – | – | –
ClC=C(Cl)C(Cl)=CCl | -4 °C | 188 °C | – | – | – | – | –
COc1ccc(C=O)c2ccccc12 | 34.8 °C | – | – | – | – | – | –
CC(=O)c1cc(C)c(C)cc1C | 10.5 °C | 246 °C | – | – | – | – | –
CNCCN | – | 115 °C | – | – | – | – | –
S=C(Cl)Cl | – | 73 °C | – | – | – | – | –

Structure (SMILES) | melting point | boiling point | ready biodegradability | log10 Koa | log10 Koc (L/kg) | log10 vapour pressure (mmHg) | log10 Henry constant (atm·m³/mol)
CC(C)C(C)C(C)C(C)C (stereo unspecified) | – | 156 °C | – | – | – | – | –
Cc1cccc(O)c1C | 72.8 °C | 217 °C | – | – | – | -1.05 | -6.13
O=C1OC(=O)c2c1ccc(Cl)c2Cl | 121 °C | 329 °C | – | – | – | – | –
CC1=C(/C=C/C(C)=C/C=C/C(C)=C/C=C/C=C(C)/C=C/C=C(C)/C=C/C2=C(C)C[C@H](O)CC2(C)C)C(C)(C)CCC1 | 160 °C | – | – | – | – | – | –
FC(F)=CCl | -138 °C | -18.5 °C | – | – | – | 3.55 | –
FC(F)(I)C(F)(F)C(F)(F)C(F)(F)I | -9 °C | 150 °C | – | – | – | – | –
Clc1c(Cl)c(Cl)c2c(oc3ccccc32)c1Cl | 169 °C | – | – | – | – | – | –
CC(C)(C)c1cc(-n2nc3ccc(Cl)cc3n2)c(O)c(C(C)(C)C)c1 | – | – | not readily biodegradable | – | – | – | –
CCCCc1ccccn1 | 97 °C | 192 °C | – | – | – | – | –
CCCOc1cc(N)ccc1C(=O)OCCN(CC)CC.Cl | 149 °C | – | – | – | – | – | –
N#Cc1cc[n+]([O-])cc1 | 224 °C | – | – | – | – | – | –
CC(C)CCC[C@@H](C)[C@H]1CC[C@@H]2[C@@H]3CC[C@H]4CCCC[C@]4(C)[C@H]3CC[C@@]21C | 76 °C | – | – | – | – | – | –
CCCCc1ccc(C=O)cc1 | – | – | not readily biodegradable | – | – | – | –
CCCCCCCCCC(=O)OCC | -20 °C | 242 °C | – | – | – | – | –
Nc1ccccc1CO | 83.5 °C | 273 °C | – | – | – | – | –
Cc1c2ccccc2c(C)c2c1ccc1ccccc12 | 122 °C | – | – | – | 5.37 | – | –
Cc1cccc(O)c1 | 11.8 °C | 202 °C | readily biodegradable | – | – | -0.959 | -6.07
CC(=O)c1ccc(Cl)cc1 | 20 °C | 232 °C | – | – | – | – | –
CCCc1ccco1 | – | 115 °C | – | – | – | – | –
CC[N+](C)(C)CCOC(=O)C(O)(c1ccccc1)c1ccccc1.[Cl-] | 213 °C | – | – | – | – | – | –
O=C1OC(=O)C2C1C1(Cl)C(Cl)=C(Cl)C2(Cl)C1(Cl)Cl (stereo unspecified) | 233 °C | – | – | – | – | – | –
CCCCCCCCON=O | – | 174 °C | – | – | – | – | –
CC(C)COCc1ccccc1 | – | 212 °C | – | – | – | – | –
CCc1cnccn1 | – | 152 °C | – | – | – | – | -5.61

Structure (SMILES) | melting point | boiling point | ready biodegradability | log10 Koa | log10 Koc (L/kg) | log10 vapour pressure (mmHg) | log10 Henry constant (atm·m³/mol)
Cc1cc(Br)cc(Br)c1O | 58 °C | – | – | – | – | – | –
c1cnoc1 | – | 95 °C | – | – | – | 1.66 | –
C=CC(O)CCCCCC (stereo unspecified) | – | 194 °C | – | – | – | – | –
C=CCNCC=C | -88.4 °C | 111 °C | – | – | – | 1.31 | –
O=C(Nc1ccccc1)NC1CCCCCC1 | – | – | – | – | 2.37 | – | –
CN(C)C(=S)SSC(=S)N(C)C | 156 °C | – | readily biodegradable | – | 2.83 | -4.76 | –
CCCCCCCC(=O)NO | 78.8 °C | – | – | – | – | – | –
Oc1ccc(Cl)cc1 | 42.7 °C | 220 °C | not readily biodegradable | – | – | -1.05 | –
CC(C)SSC(C)C | -69 °C | 177 °C | – | – | – | – | –
C#C[C@]1(O)CC[C@H]2[C@@H]3CCC4=CC(=O)CC[C@]4(C)[C@H]3CC[C@@]21C | 272 °C | – | – | – | – | – | –
CC1(C)[C@H](/C=C2\CCSC2=O)[C@@H]1C(=O)OCc1coc(Cc2ccccc2)c1 | 31 °C | – | – | – | – | – | –
COc1cccc(-c2cccc(OC)c2)c1 | 36 °C | 328 °C | – | – | – | – | –
Cc1ccc(-c2cccc(C)c2)cc1 | 14.5 °C | 289 °C | – | – | – | – | –
CC(C)(C)Cc1ccccc1 | – | 186 °C | – | – | – | – | –
CCCCC(C)(C)O | – | 143 °C | – | – | – | 0.317 | –
Cc1ccccc1N1C(=O)c2cc(S(N)(=O)=O)c(Cl)cc2NC1C (stereo unspecified) | 256 °C | – | – | – | – | – | –
CCOc1ccccc1NC(C)=O | 79 °C | – | – | – | – | – | –
CCCCOCCOCC(C)O (stereo unspecified) | – | 230 °C | – | – | – | – | –
CC(/C=C/C=C(C)/C=C/[C@@]1(O)C(C)(C)CCC[C@@]1(C)O)=C\C=C\C=C(C)\C=C\C(=O)O | 213 °C | – | – | – | – | – | –
COc1ccc(C=O)cc1O | 114 °C | – | – | – | – | – | –
CCC(C)c1cc([N+](=O)[O-])cc([N+](=O)[O-])c1OC(C)=O (stereo unspecified) | 26 °C | – | – | – | – | -3.22 | –
c1ccc2[nH]c(-c3cscn3)nc2c1 | 300 °C | – | – | – | 3.24 | -8.4 | –

Same assay, conditions: fish

Structure (SMILES) | log10 biotransformation half-life (days) | log10 BCF
Clc1ccc(-c2c(Cl)ccc(Cl)c2Cl)c(Cl)c1 | 2.61 | –
Clc1c(Cl)c(Cl)c(-c2c(Cl)c(Cl)c(Cl)c(Cl)c2Cl)c(Cl)c1Cl | 2.86 | 4.24
CC1CNC(=S)N1 (stereo unspecified) | – | 1
CC(C)(C)c1cc(-n2nc3ccc(Cl)cc3n2)c(O)c(C(C)(C)C)c1 | 0.72 | 3.57
Cc1cc(C)c2c(c1)CC(C)(C)CC2 | 0.32 | –
CN(C)C(=S)SSC(=S)N(C)C | -1.18 | 0.53
Oc1ccc(Cl)cc1 | -0.41 | 1.48
